The values that follow come from patent publication US11066369B2, “N-(pyridin-2-yl)pyridine-sulfonamide derivatives and their use in the treatment of disease” (Novartis AG, priority 2016, dated 2021).

A word on the EC50: it is the concentration needed to bring the measured effect to its halfway point.

Where a name gives a salt, the structure may show the parent alone. Read-outs that look alike come from different tables or passages of the source.

Assay [1] addresses T1, horseradish peroxidase (HRP) tagged delF508-CFTR (Homo sapiens, UniProt P13569, DEL508-508).
T1 construct: expressed in transfected cells
In words: Measurement of delF508-CFTR-HRP surface expression in CFBE41o- cells.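 On DelF508-CFTR-HRP Amax %: percent efficacy relative to reference corrector lumacaftor.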 Format: cell-based. The conditions noted are these: for Emax: read-out: DelF508-CFTR-HRP Amax %. An outline of the steps: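 CFBE41o- bronchial epithelial cells stably expressing delF508-CFTR with HRP in the fourth extracellular loop; expression induced 48h with 500 ng/mL doxycycline, then compounds added (top 10 μM, 10-point 3-fold series, ≤0.5% DMSO) for 24h at 37° C. Surface HRP measured by luminescence with cell-impermeant substrate; EC50 from logistic fit of triplicates, plate-normalized to lowest concentration; efficacy also relative to a reference corrector.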

The target of a further assay is T2, delF508-CFTR (Homo sapiens, UniProt P13569, DEL508-508).
T2 construct: functional activity of the CFTR channel (Chloride ion transport) in patient derived primary human bronchial epithelial cells; host or cells: patient-derived primary human bronchial epithelial cells (delF508-CFTR)
T2 sequence (P13569 with tags, fused parts or gaps DEL508-508): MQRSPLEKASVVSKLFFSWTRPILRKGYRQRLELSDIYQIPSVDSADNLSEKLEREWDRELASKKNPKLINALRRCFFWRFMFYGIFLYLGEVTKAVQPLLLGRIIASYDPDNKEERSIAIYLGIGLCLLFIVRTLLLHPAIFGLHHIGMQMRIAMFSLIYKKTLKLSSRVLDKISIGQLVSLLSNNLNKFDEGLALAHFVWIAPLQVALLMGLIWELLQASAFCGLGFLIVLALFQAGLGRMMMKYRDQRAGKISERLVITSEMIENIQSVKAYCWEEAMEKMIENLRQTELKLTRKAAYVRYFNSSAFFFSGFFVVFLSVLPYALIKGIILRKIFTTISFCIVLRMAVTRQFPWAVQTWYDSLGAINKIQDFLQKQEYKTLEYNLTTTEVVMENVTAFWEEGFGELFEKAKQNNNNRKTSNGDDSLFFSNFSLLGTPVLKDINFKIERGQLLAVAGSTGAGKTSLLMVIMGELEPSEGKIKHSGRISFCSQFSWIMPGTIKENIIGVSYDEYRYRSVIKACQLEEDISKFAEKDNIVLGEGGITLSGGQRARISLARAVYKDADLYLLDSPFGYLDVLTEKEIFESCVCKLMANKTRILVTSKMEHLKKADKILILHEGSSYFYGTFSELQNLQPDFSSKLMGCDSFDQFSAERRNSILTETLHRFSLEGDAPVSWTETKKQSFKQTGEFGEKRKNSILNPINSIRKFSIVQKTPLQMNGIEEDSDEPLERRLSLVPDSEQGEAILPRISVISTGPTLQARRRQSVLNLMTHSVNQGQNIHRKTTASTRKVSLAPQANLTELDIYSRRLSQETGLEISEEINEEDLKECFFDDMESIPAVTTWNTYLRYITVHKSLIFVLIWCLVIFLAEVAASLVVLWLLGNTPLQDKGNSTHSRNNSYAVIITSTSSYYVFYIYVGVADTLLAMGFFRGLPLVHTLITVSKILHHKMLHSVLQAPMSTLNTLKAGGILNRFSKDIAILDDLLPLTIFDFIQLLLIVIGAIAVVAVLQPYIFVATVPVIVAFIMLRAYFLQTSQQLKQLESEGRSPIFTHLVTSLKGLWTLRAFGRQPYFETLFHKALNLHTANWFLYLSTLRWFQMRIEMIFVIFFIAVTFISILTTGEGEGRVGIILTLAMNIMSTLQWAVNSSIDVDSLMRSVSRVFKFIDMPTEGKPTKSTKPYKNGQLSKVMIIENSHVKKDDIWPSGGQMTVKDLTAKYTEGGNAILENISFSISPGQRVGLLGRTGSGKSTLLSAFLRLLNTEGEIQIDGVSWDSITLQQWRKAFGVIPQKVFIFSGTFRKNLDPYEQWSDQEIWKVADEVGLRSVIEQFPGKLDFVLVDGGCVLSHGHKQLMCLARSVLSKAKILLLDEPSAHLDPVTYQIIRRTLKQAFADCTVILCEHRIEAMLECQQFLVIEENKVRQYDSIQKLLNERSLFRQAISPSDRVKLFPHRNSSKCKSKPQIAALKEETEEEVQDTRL
Briefly: Measurement of delF508-CFTR functional activity in primary human bronchial epithelial cells (HBECs) using Multi-Transepithelial Clamp Circuit (MTECC-24) assay. Particulars: primary CF HBECs; for MTECC24 CFHBEC- Amax %: test compound added 24h before assay plus potentiator, relative to reference combination (2 μM corrector + 0.5 μM potentiator); for EC50: test compound added 24h before assay, in the presence of potentiator, mean of at least two replicates, read-out: MTECC24 CFHBEC- EC50. Format: cell-based. The gist of the method: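 Patient-derived primary delF508-CFTR HBECs, differentiated at air-liquid interface ~2 weeks, treated basolaterally with compound for 24 h, then apical and basolateral compound in HEPES pH 7.4 assay medium. Equivalent short-circuit current (Ieq) recorded on MTECC-24 with sequential amiloride, forskolin, potentiator and INH-172; normalized to 0.1% DMSO, EC50 from curve fit.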

Setting [2] is: delF508-CFTR-HRP surface expression, CFBE41o- cells.
Where [3] appears, read: delF508-CFTR-HRP surface expression, CFBE41o- cells, read-out: DelF508-CFTR-HRP EC50.

T1 sequence (P13569 with tags, fused parts or gaps DEL508-508): as above

Take `CCCC1(C(=O)O)CCCN(c2cccc(S(=O)(=O)Nc3ccc(C(F)(F)F)c(-c4ccccc4CC)n3)n2)C1` (stereo not drawn) [Example 352, 1-(6-{[6-(2-ethylphenyl)-5-(trifluoromethyl)pyridin-2-yl]sulfamoyl}pyridin-2-yl)-3-propylpiperidine-3-carboxylic Acid]: the Emax in assay [1] (setting [2]) was found to be 714%. In addition, the figures for the EC50 (in assay [1] (setting [3]); on delF508-CFTR) were 0.699 µM and 0.000808 µM, respectively. Also, at delF508-CFTR, the “MTECC24 CFHBEC- Amax %” value is 82.2%.

For the molecule `Cc1c(F)cccc1-c1nc(NS(=O)(=O)c2cccc(N)n2)ccc1C(F)(F)F` [Example 7, 6-amino-N-(6-(3-fluoro-2-methylphenyl)-5-(trifluoromethyl)pyridin-2-yl)pyridine-2-sulfonamide], the Emax in assay [1] (setting [2]) stood at 610%. Moreover, the half-maximal effective concentration (EC50) was 1.63 µM in assay [1] (setting [3]) and 0.0027 µM at delF508-CFTR. On delF508-CFTR, the “MTECC24 CFHBEC- Amax %” value stood at 66.8%.

Take `Cc1c(F)cccc1-c1nc(NS(=O)(=O)c2cccc(N3CCC[C@@H](C(=O)O)C3)n2)ccc1C(F)(F)F` [Example 358, (3R)-1-(6-{[6-(3-fluoro-2-methylphenyl)-5-(trifluoromethyl)pyridin-2-yl]sulfamoyl}pyridin-2-yl)piperidine-3-carboxylic Acid]: the Emax in assay [1] (setting [2]) worked out at 869%. For the same molecule, the EC50 in assay [1] (setting [3]) worked out at 2.32 µM; on delF508-CFTR, 0.00402 µM. The “MTECC24 CFHBEC- Amax %” value on delF508-CFTR is 57.9%.

For the molecule `Cc1ccccc1-c1nc(NS(=O)(=O)c2cccc(N3CCC4(CCC[C@H]4N)CC3)n2)ccc1C(F)(F)F` [Example 304, (R)-6-(1-amino-8-azaspiro[4.5]decan-8-yl)-N-(6-(o-tolyl)-5-(trifluoromethyl)pyridin-2-yl)pyridine-2-sulfonamide], in assay [1] (setting [2]), the Emax is 421%. Further, the EC50 came to 3.92 µM in assay [1] (setting [3]) and 0.0085 µM on delF508-CFTR. For the same molecule, the “MTECC24 CFHBEC- Amax %” value at delF508-CFTR came out at 63.4%.

Take `O=S(=O)(Nc1ccc(C(F)(F)F)c(-c2cccc(F)c2Cl)n1)c1cccc(N2CC(O)C2)n1` [Example 230, N-(6-(2-chloro-3-fluorophenyl)-5-(trifluoromethyl)pyridin-2-yl)-6-(3-hydroxyazetidin-1-yl)pyridine-2-sulfonamide]: in assay [1] (setting [2]), the Emax was found to be 513%. Moreover, the concentration giving a half-maximal response (EC50) in assay [1] (setting [3]) stood at 2.94 µM. In addition, at delF508-CFTR, the “MTECC24 CFHBEC- Amax %” value is on record as 60.6% and the EC50 was found to be 0.0211 µM.

As to `Cc1ccc(F)cc1-c1nc(NS(=O)(=O)c2cccc(N3CCCC(C)(C(=O)O)C3)n2)ccc1C(F)(F)F` (stereo not drawn) [Example 361, 1-(6-{[6-(5-fluoro-2-methylphenyl)-5-(trifluoromethyl)pyridin-2-yl]sulfamoyl}pyridin-2-yl)-3-methylpiperidine-3-carboxylic Acid], the EC50 came to 2.08 µM in assay [1] (setting [3]) and 0.0113 µM on delF508-CFTR. For the same molecule, the “MTECC24 CFHBEC- Amax %” value on delF508-CFTR is given as 51.9%.

For `Cc1ccccc1-c1nc(NS(=O)(=O)c2cccc(N[C@H]3CCCNC3)n2)ccc1C(F)(F)F` [Example 105, (S)-6-(piperidin-3-ylamino)-N-(6-(o-tolyl)-5-(trifluoromethyl)pyridin-2-yl)pyridine-2-sulfonamide Hydrochloride], in assay [1] (setting [2]), the Emax amounted to 310%. Further, in assay [1] (setting [3]), the EC50 turned out to be 3.19 µM. On delF508-CFTR, the “MTECC24 CFHBEC- Amax %” value was 58.1% and the EC50 was determined as 0.222 µM.

For `Cc1ccccc1-c1nc(NS(=O)(=O)c2cccc(N3CCN(CC(N)=O)CC3)n2)ccc1C(F)(F)F` [Example 183, 2-(4-(6-(N-(6-(o-tolyl)-5-(trifluoromethyl)pyridin-2-yl)sulfamoyl)pyridin-2-yl)piperazin-1-yl)acetamide], the Emax in assay [1] (setting [2]) came to 191%. Besides, the concentration for a half-maximal effect (EC50) in assay [1] (setting [3]) was 0.896 µM; at delF508-CFTR it was 0.0749 µM. Also, the “MTECC24 CFHBEC- Amax %” value on delF508-CFTR was determined as 67.8%.

On to `Cc1ccccc1-c1nc(NS(=O)(=O)c2ccc(C)c(N)n2)ccc1C(F)(F)F` [Example 36, 6-amino-5-methyl-N-(6-(o-tolyl)-5-(trifluoromethyl)pyridin-2-yl)pyridine-2-sulfonamide], for which, in assay [1] (setting [2]), the Emax amounted to 390%. For the same molecule, the half-maximal effective concentration (EC50) is 2.1 µM in assay [1] (setting [3]) and 0.0259 µM on delF508-CFTR. At delF508-CFTR, the “MTECC24 CFHBEC- Amax %” value turned out to be 67.6%.

In the case of `Cc1ccc(F)cc1-c1nc(NS(=O)(=O)c2cccc(N)n2)ccc1C(F)(F)F` [Example 1, 6-amino-N-(6-(5-fluoro-2-methylphenyl)-5-(trifluoromethyl)pyridin-2-yl)pyridine-2-sulfonamide], the Emax in assay [1] (setting [2]) was 867%. For the same molecule, the EC50 in assay [1] (setting [3]) is 1.78 µM. Also, at delF508-CFTR, the “MTECC24 CFHBEC- Amax %” value came out at 78.9% and the EC50 came out at 0.004 µM.

Turning to `CCOC(=O)C1(C)CCN(c2cccc(S(=O)(=O)Nc3ccc(C(F)(F)F)c(-c4cc(F)ccc4C)n3)n2)CC1` [Example 251, ethyl 1-(6-(N-(6-(5-fluoro-2-methylphenyl)-5-(trifluoromethyl)pyridin-2-yl)sulfamoyl)pyridin-2-yl)-4-methylpiperidine-4-carboxylate], in assay [1] (setting [2]), the Emax worked out at 894%. Moreover, the half-maximal effective concentration (EC50) in assay [1] (setting [3]) worked out at 1.45 µM. At delF508-CFTR, the “MTECC24 CFHBEC- Amax %” value is 61.2% and the concentration for a half-maximal effect (EC50) stood at 0.0032 µM.

For `Cc1ccccc1-c1nc(NS(=O)(=O)c2cccc(N3C4CCCC3CC(C(=O)O)C4)n2)ccc1C(F)(F)F` (stereo not drawn) [Example 345, 9-(6-{[6-(2-methylphenyl)-5-(trifluoromethyl)pyridin-2-yl]sulfamoyl}pyridin-2-yl)-9-azabicyclo[3.3.1]nonane-3-carboxylic Acid], in assay [1], the midpoint of the response, the EC50, lay at 1.33 µM. For the same molecule, the Emax in assay [1] (CFBE41o-) was determined as 557%. Besides, at delF508-CFTR, the “MTECC24 CFHBEC- Amax %” value is 90.4% and the EC50 amounted to 0.0415 µM.

`Cc1ccccc1-c1nc(NS(=O)(=O)c2cccc(N3CCN(CC(F)(F)F)CC3)n2)ccc1C(F)(F)F` [Example 186, N-(6-(o-tolyl)-5-(trifluoromethyl)pyridin-2-yl)-6-(4-(2,2,2-trifluoroethyl)piperazin-1-yl)pyridine-2-sulfonamide]: the concentration for a half-maximal effect (EC50) in assay [1] (setting [3]) came to 1.19 µM; at delF508-CFTR, 0.0026 µM. Moreover, the “MTECC24 CFHBEC- Amax %” value at delF508-CFTR came out at 81.5%.

As to `COC(=O)C1(N)CCN(c2cccc(S(=O)(=O)Nc3ccc(Cl)c(-c4c(C)cccc4C)n3)n2)CC1` [Example 270, methyl 4-amino-1-(6-{[5-chloro-6-(2,6-dimethylphenyl)pyridin-2-yl]sulfamoyl}pyridin-2-yl)piperidine-4-carboxylate], in assay [1] (setting [2]), the Emax is 561%. Moreover, the EC50 in assay [1] (setting [3]) came to 1.94 µM; on delF508-CFTR, 0.095 µM. In addition, the “MTECC24 CFHBEC- Amax %” value on delF508-CFTR was 69.5%.

Regarding `Cc1ccccc1-c1nc(NS(=O)(=O)c2cccc(O[C@@H]3COC[C@@H]3O)n2)ccc1C(F)(F)F` (single isomer, unassigned) [Example 296], the Emax in assay [1] (setting [2]) stood at 255%. In addition, the 50% effective concentration (EC50) in assay [1] (setting [3]) was 3.22 µM; at delF508-CFTR, 0.03 µM. Further, the “MTECC24 CFHBEC- Amax %” value at delF508-CFTR was found to be 54.3%.

Regarding `Cc1ccc(F)cc1-c1nc(NS(=O)(=O)c2ccnc(N3CC(C)(O)C3)c2)ccc1C(F)(F)F` [Example 320, N-(6-(5-fluoro-2-methylphenyl)-5-(trifluoromethyl)pyridin-2-yl)-2-(3-hydroxy-3-methylazetidin-1-yl)pyridine-4-sulfonamide], the Emax in assay [1] (setting [2]) worked out at 545%. The EC50 in assay [1] (setting [3]) was determined as 2.22 µM. Moreover, at delF508-CFTR, the “MTECC24 CFHBEC- Amax %” value worked out at 74.2% and the EC50 was determined as 0.126 µM.

In the case of `CNC1CCN(c2cccc(S(=O)(=O)Nc3ccc(C(F)(F)F)c(-c4ccccc4C)n3)n2)CC1` [Example 109, 6-(4-(methylamino)piperidin-1-yl)-N-(6-(o-tolyl)-5-(trifluoromethyl)pyridin-2-yl)pyridine-2-sulfonamide Hydrochloride], in assay [1] (setting [2]), the Emax came out at 332%. In assay [1] (setting [3]), the EC50 worked out at 2.68 µM. On delF508-CFTR, the “MTECC24 CFHBEC- Amax %” value was determined as 84.9% and the 50% effective concentration (EC50) was determined as 0.17 µM.

In the case of `Cc1ccccc1-c1nc(NS(=O)(=O)c2cccc(N3CCN(CC(F)F)CC3)n2)ccc1C(F)(F)F` [Example 185, 6-(4-(2,2-difluoroethyl)piperazin-1-yl)-N-(6-(o-tolyl)-5-(trifluoromethyl)pyridin-2-yl)pyridine-2-sulfonamide], in assay [1] (setting [2]), the Emax came to 877%. In addition, the EC50 was 1.46 µM in assay [1] (setting [3]) and 0.0046 µM on delF508-CFTR. Besides, the “MTECC24 CFHBEC- Amax %” value on delF508-CFTR is listed as 105.5%.

Consider `Nc1cccc(S(=O)(=O)Nc2ccc(Cl)c(-c3cccc(C(F)(F)F)c3)n2)n1` [Example 73, 6-amino-N-(5-chloro-6-(3-(trifluoromethyl)phenyl)pyridin-2-yl)pyridine-2-sulfonamide], for which, in assay [1] (setting [2]), the Emax was 163%. Further, in assay [1] (setting [3]), the EC50 stood at 4.24 µM. For the same molecule, on delF508-CFTR, the “MTECC24 CFHBEC- Amax %” value is recorded as 64.2% and the concentration for a half-maximal effect (EC50) came to 0.135 µM.

`Cc1cccc(C)c1-c1nc(NS(=O)(=O)c2cccc(N3CCn4cc(C(F)(F)F)nc4C3)n2)ccc1Cl` [Example 199, N-(5-chloro-6-(2,6-dimethylphenyl)pyridin-2-yl)-6-(2-(trifluoromethyl)-5,6-dihydroimidazo[1,2-a]pyrazin-7(8H)-yl)pyridine-2-sulfonamide]: the Emax in assay [1] (setting [2]) worked out at 700%. The results for the EC50 (in assay [1] (setting [3]); on delF508-CFTR) were 2.22 µM and 0.0383 µM, respectively. In addition, on delF508-CFTR, the “MTECC24 CFHBEC- Amax %” value is given as 87.1%.
